From patent US4108991A, “N-aminosulfenyl derivatives of aldicarb” (priority 1976, dated 1978)

System: Mexican bean beetle
Assay: Initial contact activity, leaf dip, Mexican bean beetle
Type: in vivo, Epilachna varivestis Muls.
Conditions: Epilachna varivestis, foliar, 48 h, initial, BB, 156 PPM, 48 hours; read-out: Percent Kill
Procedure: (§1) Initial Contact Activity: One half gram of test compound was dissolved in 40 ml of acetone and this solution was dispersed in 360 ml of water containing one drop of isooctylphenyl polyethoxyethanol. Aliquots of this solution, which corresponds to 1250 ppm of active ingredient, were diluted with an appropriate amount of water to provide solutions containing various concentrations of active ingredient. Test organisms and techniques were as follows: The activity against the Mexican bean beetle (Epilachna varivestis Muls.) and the southern armyworm (Spodoptera eridania [Cram.]) was evaluated by dipping the leaves of pinto bean plants into the test solution and infesting the leaves with the appropriate immature-form insects when the foiliage had dried; the activity against the pea aphid (Acyrthosiphon pisum [Harris]) was evaluated on broad bean plants whose leaves were dipped before infestation with adult aphids; the activity against two-sotted spider mites (Tetranychus urticae Koch) was evaluated on pinto bean plants whose leaves were dipped after infestation with adult mites; the activity against the milkweed bug (Oncopeltus fasciatus [Dallas]), and the plum curculio (Conotrachelus nenuphar [Herbst]) was evaluated by spraying the test solutions into glass dishes or jars containing the adult insects; the activity against the confused flour beetle (Tribolium confusum duVal) was evaluated by introducing the insects into glass dishes which had been previously sprayed with test solution and allowed to dry. All organisms in the test were maintained in a holding room at 80° F and 50% relative humidity for an exposure period of 48 hours. At the end of this time, the dead and living insects or mites were counted, and the percent kill was calculated.

Question: With `CSC(C)(C)C=NOC(=O)N(C)SN1CCOCC1` [Example II, 2-methyl-2-(methylthio)propanol O-[(N-methyl-N-morpholinosulfenyl)carbamoyl]oxime] as the compound, how does the mortality at 156 ppm read?
Answer: 100%

Same assay, conditions: Epilachna varivestis, foliar, 48 h, initial, BB, 312 PPM, 48 hours; read-out: Percent Kill

Question: With `CSC(C)(C)C=NOC(=O)N(C)SN1CCOCC1` [Example II, 2-methyl-2-(methylthio)propanol O-[(N-methyl-N-morpholinosulfenyl)carbamoyl]oxime] as the compound, how does the mortality at 312 ppm read?
Answer: 100%

Same assay, conditions: Epilachna varivestis, foliar, 48 h, initial, BB, 625 PPM, 48 hours; read-out: Percent Kill

Question: With `CSC(C)(C)C=NOC(=O)N(C)SN1CCOCC1` [Example II, 2-methyl-2-(methylthio)propanol O-[(N-methyl-N-morpholinosulfenyl)carbamoyl]oxime] as the compound, how does the mortality at 625 ppm read?
Answer: 100%

Same assay, conditions: Epilachna varivestis, foliar, 48 h, initial, BB, 1250 PPM, 48 hours; read-out: Percent Kill

Question: For `CSC(C)(C)C=NOC(=O)N(C)SN1CCOCC1` [Example II, 2-methyl-2-(methylthio)propanol O-[(N-methyl-N-morpholinosulfenyl)carbamoyl]oxime], which mortality at 1250 ppm is on record?
Answer: 100%

System: Two-spotted spider mite
Assay: Residual (7-day) contact activity, two-spotted spider mite
Type: in vivo, Tetranychus urticae Koch
Conditions: Tetranychus urticae, 168 h, residual 7-day, SM, 156 PPM; read-out: Percent Kill
Procedure: as §1
(§2) Residual Contact Activity: The residual contact activity of the compounds was determined on the same organisms using the techniques described above, except that in each case the treated surface was allowed to dry and was exposed to normal light and air for seven days before introduction of the mites or insects.

Question: With `CSC(C)(C)C=NOC(=O)N(C)SN1CCOCC1` [Example II, 2-methyl-2-(methylthio)propanol O-[(N-methyl-N-morpholinosulfenyl)carbamoyl]oxime] as the compound, how does the mortality at 156 ppm read?
Answer: 76%

Same assay, conditions: Tetranychus urticae, 168 h, residual 7-day, SM, 312 PPM; read-out: Percent Kill

Question: With `CSC(C)(C)C=NOC(=O)N(C)SN1CCOCC1` [Example II, 2-methyl-2-(methylthio)propanol O-[(N-methyl-N-morpholinosulfenyl)carbamoyl]oxime] as the compound, how does the mortality at 312 ppm read?
Answer: 93%

Same assay, conditions: Tetranychus urticae, 168 h, residual 7-day, SM, 1250 PPM; read-out: Percent Kill

Question: For `CSC(C)(C)C=NOC(=O)N(C)SN1CCOCC1` [Example II, 2-methyl-2-(methylthio)propanol O-[(N-methyl-N-morpholinosulfenyl)carbamoyl]oxime], which mortality at 1250 ppm is on record?
Answer: 97%

System: Pea aphid
Assay: Residual (7-day) contact activity, pea aphid
Type: in vivo, Acyrthosiphon pisum [Harris]
Conditions: Acyrthosiphon pisum, 168 h, residual 7-day, PA, 156 PPM; read-out: Percent Kill
Procedure: as §1, §2

Question: For `CSC(C)(C)C=NOC(=O)N(C)SN1CCOCC1` [Example II, 2-methyl-2-(methylthio)propanol O-[(N-methyl-N-morpholinosulfenyl)carbamoyl]oxime], which mortality at 156 ppm is on record?
Answer: 0%

Same assay, conditions: Acyrthosiphon pisum, 168 h, residual 7-day, PA, 312 PPM; read-out: Percent Kill

Question: With `CSC(C)(C)C=NOC(=O)N(C)SN1CCOCC1` [Example II, 2-methyl-2-(methylthio)propanol O-[(N-methyl-N-morpholinosulfenyl)carbamoyl]oxime] as the compound, how does the mortality at 312 ppm read?
Answer: 0%

Same assay, conditions: Acyrthosiphon pisum, 168 h, residual 7-day, PA, 1250 PPM; read-out: Percent Kill

Question: Which mortality at 1250 ppm does the source give for `CSC(C)(C)C=NOC(=O)N(C)SN1CCOCC1` [Example II, 2-methyl-2-(methylthio)propanol O-[(N-methyl-N-morpholinosulfenyl)carbamoyl]oxime] here?
Answer: 93%

System: Mexican bean beetle
Assay: Systemic activity, soil-watering, Mexican bean beetle
Type: in vivo, Epilachna varivestis Muls.
Conditions: Epilachna varivestis, 48 h, systemic, BB, 39 PPM; read-out: Percent Kill
Procedure: as §1
Systemic Activity: Systemic activity was measured using a soil-watering technique. Test organisms were Mexican bean beetle, southern armyworm, pea aphid, and mites on plants as described above in this Example. With appropriate precautions to avoid contact of the solution with the test plant surfaces, 25 ml of a test solution, prepared as above to contain the desired amount of active ingredient, were poured evenly over the surface of the soil in which the plant was growing. The treated plants were maintained under normal growing conditions for three days to permit translocation of the toxicant, after which the leaves were infested. Two days after infestation, counts of living and dead insects were made.

Question: Which mortality at 39 ppm does the source give for `CSC(C)(C)C=NOC(=O)N(C)SN1CCOCC1` [Example II, 2-methyl-2-(methylthio)propanol O-[(N-methyl-N-morpholinosulfenyl)carbamoyl]oxime] here?
Answer: 58%

Same assay, conditions: Epilachna varivestis, 48 h, systemic, BB, 156 PPM; read-out: Percent Kill

Question: Which mortality at 156 ppm does the source give for `CSC(C)(C)C=NOC(=O)N(C)SN1CCOCC1` [Example II, 2-methyl-2-(methylthio)propanol O-[(N-methyl-N-morpholinosulfenyl)carbamoyl]oxime] here?
Answer: 100%

System: Plum curculio
Assay: Residual (7-day) contact activity, plum curculio
Type: in vivo, Conotrachelus nenuphar [Herbst]
Conditions: Conotrachelus nenuphar, 168 h; residual 7-day, PC, 156 PPM; read-out: Percent Kill
Procedure: as §1, §2

Question: With `CSC(C)(C)C=NOC(=O)N(C)SN1CCOCC1` [Example II, 2-methyl-2-(methylthio)propanol O-[(N-methyl-N-morpholinosulfenyl)carbamoyl]oxime] as the compound, how does the mortality at 156 ppm read?
Answer: 10%

Same assay, conditions: Conotrachelus nenuphar, 168 h; residual 7-day, PC, 312 PPM; read-out: Percent Kill

Question: Which mortality at 312 ppm does the source give for `CSC(C)(C)C=NOC(=O)N(C)SN1CCOCC1` [Example II, 2-methyl-2-(methylthio)propanol O-[(N-methyl-N-morpholinosulfenyl)carbamoyl]oxime] here?
Answer: 5%

Same assay, conditions: Conotrachelus nenuphar, 168 h; residual 7-day, PC, 1250 PPM; read-out: Percent Kill

Question: For `CSC(C)(C)C=NOC(=O)N(C)SN1CCOCC1` [Example II, 2-methyl-2-(methylthio)propanol O-[(N-methyl-N-morpholinosulfenyl)carbamoyl]oxime], which mortality at 1250 ppm is on record?
Answer: 37%

System: Plum curculio
Assay: Initial contact activity, spray, plum curculio
Type: in vivo, Conotrachelus nenuphar [Herbst]
Conditions: Conotrachelus nenuphar; initial, PC, 10 PPM, 48 hours; read-out: Percent Kill
Procedure: as §1

Question: For `CSC(C)(C)C=NOC(=O)N(C)SN1CCOCC1` [Example II, 2-methyl-2-(methylthio)propanol O-[(N-methyl-N-morpholinosulfenyl)carbamoyl]oxime], which mortality at 10 ppm is on record?
Answer: 0%

Same assay, conditions: Conotrachelus nenuphar; initial, PC, 39 PPM, 48 hours; read-out: Percent Kill

Question: Which mortality at 39 ppm does the source give for `CSC(C)(C)C=NOC(=O)N(C)SN1CCOCC1` [Example II, 2-methyl-2-(methylthio)propanol O-[(N-methyl-N-morpholinosulfenyl)carbamoyl]oxime] here?
Answer: 5%

Same assay, conditions: Conotrachelus nenuphar; initial, PC, 156 PPM, 48 hours; read-out: Percent Kill

Question: With `CSC(C)(C)C=NOC(=O)N(C)SN1CCOCC1` [Example II, 2-methyl-2-(methylthio)propanol O-[(N-methyl-N-morpholinosulfenyl)carbamoyl]oxime] as the compound, how does the mortality at 156 ppm read?
Answer: 47%

Same assay, conditions: Conotrachelus nenuphar; initial, PC, 1250 PPM, 48 hours; read-out: Percent Kill

Question: For `CSC(C)(C)C=NOC(=O)N(C)SN1CCOCC1` [Example II, 2-methyl-2-(methylthio)propanol O-[(N-methyl-N-morpholinosulfenyl)carbamoyl]oxime], which mortality at 1250 ppm is on record?
Answer: 100%

System: not listed separately
Assay: Toxicity to rats, acute oral median lethal dose (LD50), Method A
Type: in vivo, young female albino rats, derived from Sprague-Dawley stock
Conditions: in vivo, rat, corn oil, 14 days observation
Procedure: (§3) Method A: Young female albino rats, derived from Sprague-Dawley stock and weighing between 175 and 200 g, were used. An initial screening was conducted to determine the general level of toxicity of the test compounds and to establish the dosing range to be used with each compound. The test materials were suspended in corn oil and administered directly into the stomachs of the rats, using a hypodermic syringe equipped with a ball-tipped intubating needle. A range of dosing levels was employed utilizing two rats at each level. […] This method was used to determine the toxicity to rats of the compounds of Examples I, II, and III and aldicarb.

Question: Which LD50 at 336 h does the source give for `CSC(C)(C)C=NOC(=O)N(C)SN1CCOCC1` [Example II, 2-methyl-2-(methylthio)propanol O-[(N-methyl-N-morpholinosulfenyl)carbamoyl]oxime] here?
Answer: 1.2 mg/kg

System: rats
Assay: as above
Type: in vivo, young female albino rats, derived from Sprague-Dawley stock
Conditions: rat
Procedure: as §3

Question: For `CSC(C)(C)C=NOC(=O)N(C)SN1CCOCC1` [Example II, 2-methyl-2-(methylthio)propanol O-[(N-methyl-N-morpholinosulfenyl)carbamoyl]oxime], which “LD50 relative to that of aldicarb” value is on record?
Answer: 2.4 times
